For assay [1], the system named is 3T3L1 cell line. Kind of assay: Adipocyte differentiation inhibition by TREK1 activator (triglyceride amount) in 3T3L1 cells. It counts as cell-based. To be noted: 10 μM, 25 μM. The procedure: (§1) 3T3-L1 cells were purchased from ATCC (American Type Culture Collection) and cultured in Dulbecco's Modified Eagle Medium (Gibco, N.Y., USA) with 10% (v/v) bovine serum (Gibco, N.Y., USA) and 1% v/v) penicillin/streptomycin (Thermo Fisher Scientific, N.J., USA). Cultures were maintained in a humidified 5% CO2 incubator at 37° C. After reaching 80% confluence, the differentiation of 3T3L1 cells was induced by replacing the medium with DMEM containing 10% FBS plus 1 μg/mL insulin, 0.5 mM isobutyl-1-methylxanthine (IBMX), 1 μM and 2 μM Rosiglitazone for 3 days. Afterward the medium was changed with DMEM containing 10% FBS plus 1 μg/mL insulin, and the cells were further cultured for 2 to 4 days. Culture medium contained a combination of IBMX, dexamethasone (Dex), insulin, rosiglitazone, and fetal bovine serum (FBS) to differentiate preadipocyte into mature adipocytes. After differentiation, experiments were conducted at three points. Each time the medium was changed over time, the cells were differentiated with IBMX medium for 3 days, and then changed to insulin medium every 2 days thereafter. As a result of confirmation by a microscope, the cell shape of 3T3-L1 was changed over time and intracellular lipid droplets were produced.
The 3T3L1 cell line, in which the same effect as in vivo and conditions was well confirmed, was treated with ML402, which has been reported to have an active effect on TREK1. Specifically, the cells were sampled on the 3rd, 5th, and 7th days by treating ML402 together from the time of differentiation at concentrations of 10 μM, 25 μM, and 100 μM, respectively.

Assay [2] deals with 3T3L1 cell line. Kind of assay: Differentiation of 3T3L1 preadipocytes into adipocytes. In kind it is cell-based. The procedure: The 3T3L1 cell line, a preadipocyte cell line, was treated with MDI (Dexamethasone, IBMX, insulin) as a differentiation-inducing agent, and differentiation was induced for 7 days, and the differentiation into adipocytes was confirmed by staining with oil red 0 (FIG. 1A).
as §1, with “As a result of confirmation by a microscope, the cell shape of 3T3-L1 was changed over time and intracellular lipid droplets were produced.” left out

For the next assay, the system named is 3T3L1 cells. The assay is described as follows: Intracellular calcium ion concentration in 3T3L1 preadipocytes. It counts as cell-based. From the text:
In summary, the activity of TREK1, which is a potassium ion channel, was decreased in the process of differentiation into adipocytes, and as a result, the cell membrane potential was depolarized, and voltage-dependent calcium ion channels were activated, resulting in increasing intracellular calcium ion concentration and promoting the differentiation of adipocytes.

In assay [3] the test system is primary cultured adipocytes. The assay is described as follows: Potassium conductivity and resting membrane potential in primary cultured adipocytes. It counts as cell-based, mouse (C57BL/6). The procedure: (§2) The method for obtaining primary cultured adipocytes is as follows. Primary white adipocytes were isolated from inguinal WAT 6-8 week mouse (C57BL/6). The extracted WAT was washed in a 15 mL tube. The enzyme solution was mixed with collagenase Type II (Worthington Industries, Columbus, Ohio, USA) and PBS (Gibco, N.Y., USA), and the tissue was incubated in 20 mL enzyme solution in an incubator at 37° C. for 1 hour. After filtering, the tissue was added to a new 50 mL tube and centrifuged at 10,000 rpm for 10 minutes. The adipocytes floating in the solution were transferred to a new tube using a pipette. Then, the adipocytes were once more centrifuged in DMEM/F12 (Gibco, N.Y., USA) containing 10% (v/v) FBS. After transferring the fatty layer to the cell culture flask, and the flask was filled with DMEM/F12+mixture. The flask was inverted and incubated in a 37° C. CO2 incubator, and the medium was changed after about 5 days.

Assay [4] concerns primary cultured adipocytes. The assay is described as follows: Differentiation of primary cultured adipocytes. As to conditions: primary cultured adipocytes treated with TREK1 inhibitor (FIG. 4 legend). In kind it is cell-based, mouse (C57BL/6). The procedure: as §2
Assay [5] has as its system 3T3L1 cell line. Kind of assay: Potassium ion conductivity by patch clamp in undifferentiated 3T3L1 cells. It counts as cell-based. As to conditions: undifferentiated condition, patch clamp (FIG. 2B). The procedure: as §1, with “produced. […]” for “produced.”

Take `Cc1cc(Cl)ccc1OCCNC(=O)c1cccs1` [ML402]: in the assay on 3T3L1 cell line [1] (3T3L1, 100 μM (FIG. 7)), the differentiation process result is listed as “inhibited in a concentration-dependent manner”. Besides, the amount of triglycerides result with 3T3L1 cell line [1] (3rd day, 100 μM from the time of differentiation, vs control group (FIG. 7)) is reported as “did not show a significant difference”; in the assay on 3T3L1 cell line [1] (5th and 7th days, 100 μM from the time of differentiation (FIG. 7)) it was “decreased in a concentration-dependent manner”.
Consider `COC(=O)C1=C(C)NC(C)=C(C(=O)OC)C1c1ccccc1[N+](=O)[O-]` [nifedifine], for which, in the assay on 3T3L1 cell line [2] (with voltage-dependent calcium ion channel inhibitor, spadin-treated 3T3L1 (FIGS. 3D and 3E)), the differentiation into adipocytes entry is recorded as “differentiation into adipocytes was also inhibited”. In the assay with 3T3L1 cells (with voltage-dependent calcium ion channel inhibitor (FIGS. 3B and 3C)), the “spadin-induced increase in calcium ions” value is “effectively inhibited”.
In the case of spadin, in the assay with 3T3L1 cell line [2] (treated in the process of differentiation of 3T3L1 (FIG. 2C)), the “degree of differentiation into adipocytes” value was “the degree of differentiation was significantly increased”. Further, in assay [3] (1 μM concentration (FIG. 4C)), the resting membrane potential entry is “the resting membrane potential was also increased”. Moreover, the potassium ion conductivity result in assay [3] (1 μM concentration (FIGS. 4A and 4B)) is “significantly decreased”. For the same molecule, the differentiation into adipocytes entry in assay [4] is “differentiation into adipocytes is significantly increased”. The potassium conductivity entry in the assay on 3T3L1 cell line [5] is reported as “most of the potassium conductivity was decreased”. Further, in the assay with 3T3L1 cells (30 minutes after spadin treatment (FIG. 3A)), the “intracellular calcium ion concentration” value is reported as “a significant increase in calcium ions”.

The values are drawn from patent publication US20230140453A1, “METHOD FOR CONTROLLING OBESITY BY REGULATING ACTIVITY OF TREK1” (KOREA INSTITUTE OF SCIENCE AND TECHNOLOGY, priority 2021, published 2023).
